Measured values as given in ChEMBL document CHEMBL6134867, “Design and Synthesis of FR-β Targeting Chimeric Molecules for Reprogramming Tumor-Associated Macrophages Using 6-Substituted Pyrrolo[2,3-d]pyrimidines as Targeting Ligands” (J Med Chem, 2025).
Active and inactive are the calls of the source. No cut-off for these calls is given here.

Legend:
[1] = Stability of the compound in mouse plasma at 5 uM and measured at 37 degC and for up to 12 hrs by HPLC analysis; type: ADME, cell-free; conditions: read-out: Stability
[2] = Toxicity against BALB/c mouse xenografted with mouse 4T1 cells assessed as pathological changes in kidney at 1 mg/kg, iv qd for 14 days by Hematoxylin-Eosin staining based analysis; type: organism-based; conditions: in vivo, 336 h, time 14 day
[3] = Toxicity against BALB/c mouse xenografted with mouse 4T1 cells assessed as pathological changes in heart at 1 mg/kg, iv qd for 14 days by Hematoxylin-Eosin staining based analysis; type: organism-based; conditions: in vivo, 336 h, time 14 day
4T1 [4] = experiment: Antitumor activity against mouse 4T1 cells xenografted in BALB/c mouse assessed as inhibition of tumor growth at 1 mg/kg, iv qd for 14 days and measured every day by digital caliper analysis; type: functional, organism-based; conditions: time 14.0 day
BMDM [5] = experiment: Induction of macrophage repolarization in FR-beta expressing IL-4 differentiated M2 phenotype mouse BMDM cells assessed as reprogramming to M1 phenotype by measuring TNF-alpha mRNA expression at 10 nM incubated for 24 hrs by RT-qPCR analysis; type: functional, cell-based
[6] = Toxicity against BALB/c mouse assessed as increase in IL-6 level in plasma at 20 ug, iv measured after 2 hrs by ELISA; type: organism-based; conditions: in vivo, dose 20 µg
BMDM [7] = experiment: Induction of macrophage repolarization in FR-beta expressing IL-4 differentiated M2 phenotype mouse BMDM cells assessed as reprogramming to M1 phenotype by measuring downregulation of IL-10 mRNA expression at 10 nM incubated for 24 hrs by RT-qPCR analysis; type: functional, cell-based
4T1 [8] = experiment: Cytotoxicity against mouse 4T1 cells assessed as reduction in cell viability incubated for 24 hrs by CCK-8 assay; type: toxicity, cell-based; conditions: 4t1, 24 h
[9] = Stability of the compound in PBS measured at 4 degC and for 15 days; type: physicochemical; conditions: time 15 day, read-out: Stability
[10] = Prodrug release assessed as IMDQ-SH formation in presence of 10 mM GSH and measured within 1 hr by HPLC analysis; type: ADME
BMDM [11] = experiment: Induction of macrophage repolarization in FR-beta expressing IL-4 differentiated M2 phenotype mouse BMDM cells assessed as reprogramming to M1 phenotype by measuring upregulation of iNOS expression at 10 nM incubated for 24 hrs by western blot analysis; type: functional, cell-based
[12] = Toxicity against BALB/c mouse xenografted with mouse 4T1 cells assessed as heightened inflammatory response in lung at 1 mg/kg, iv qd for 14 days by Hematoxylin-Eosin staining based analysis; type: organism-based; conditions: in vivo, 336 h, time 14 day
[13] = Toxicity against BALB/c mouse xenografted with mouse 4T1 cells assessed as pathological changes in liver at 1 mg/kg, iv qd for 14 days by Hematoxylin-Eosin staining based analysis; type: organism-based; conditions: in vivo, 336 h, time 14 day
Mus musculus [14] = experiment: In vivo transition from anti-inflammatory to pro-inflammatory phenotypes in BALB/c mouse xenografted with mouse 4T1 cells assessed as upregulation in proportion of CD8+ cells at 1 mg/kg, iv qd for 14 days by flow cytometry; type: functional, organism-based; conditions: time 14.0 day
[15] = Cytotoxicity against mouse BMDM cells assessed as reduction in cell viability incubated for 24 hrs by CCK-8 assay; type: toxicity, cell-based
[16] = Toxicity against BALB/c mouse xenografted with mouse 4T1 cells assessed as effect on body weight at 1 mg/kg, iv qd for 14 days and measured every day; type: organism-based; conditions: in vivo, 336 h, time 14 day
BMDM [17] = experiment: Induction of macrophage repolarization in FR-beta expressing IL-4 differentiated M2 phenotype mouse BMDM cells assessed as reprogramming to M1 phenotype by measuring downregulation of Arg1 expression at 10 nM incubated for 24 hrs by western blot analysis; type: functional, cell-based
BMDM [18] = experiment: Induction of macrophage repolarization in FR-beta expressing IL-4 differentiated M2 phenotype mouse BMDM cells assessed as reprogramming to M1 phenotype by measuring TNF-alpha level at 10 nM incubated for 24 hrs by ELISA; type: functional, cell-based
[19] = Toxicity against BALB/c mouse assessed as increase in TNF-alpha level in plasma at 20 ug, iv measured after 2 hrs by ELISA; type: organism-based; conditions: in vivo, dose 20 µg
BMDM [20] = experiment: Induction of macrophage repolarization in FR-beta expressing IL-4 differentiated M2 phenotype mouse BMDM cells assessed as reprogramming to M1 phenotype by measuring upregulation of TLR7 mRNA expression at 10 nM incubated for 24 hrs by RT-qPCR analysis; type: functional, cell-based
BMDM [21] = experiment: Induction of macrophage repolarization in FR-beta expressing IL-4 differentiated M2 phenotype mouse BMDM cells assessed as reprogramming to M1 phenotype by measuring upregulation of iNOS mRNA expression at 10 nM incubated for 24 hrs by RT-qPCR analysis; type: functional, cell-based
BMDM [22] = experiment: Induction of macrophage repolarization in FR-beta expressing IL-4 differentiated M2 phenotype mouse BMDM cells assessed as reprogramming to M1 phenotype by measuring upregulation of TLR7 expression at 10 nM incubated for 24 hrs by western blot analysis; type: functional, cell-based
BMDM [23] = experiment: Induction of macrophage repolarization in FR-beta expressing IL-4 differentiated M2 phenotype mouse BMDM cells assessed as reprogramming to M1 phenotype by measuring downregulation of Arg1 mRNA expression at 10 nM incubated for 24 hrs by RT-qPCR analysis; type: functional, cell-based
Mus musculus [24] = experiment: In vivo transition from anti-inflammatory to pro-inflammatory phenotypes in BALB/c mouse xenografted with mouse 4T1 cells assessed as CD4+ cells population at 1 mg/kg, iv qd for 14 days by flow cytometry; type: functional, organism-based; conditions: time 14.0 day
BMDM [25] = experiment: Induction of macrophage repolarization in FR-beta expressing IL-4 differentiated M2 phenotype mouse BMDM cells assessed as reprogramming to M1 phenotype by measuring downregulation of CD206 mRNA expression at 10 nM incubated for 24 hrs by RT-qPCR analysis; type: functional, cell-based
Mus musculus [26] = experiment: In vivo repolarization of macrophages from M2 phenotype to M1 phenotype in BALB/c mouse xenografted with mouse 4T1 cells assessed as increase in M1 (F4/80+CD11b+CD86+) to M2 (F4/80+CD11b+CD206+) macrophage ratio in tumor at 1 mg/kg, iv qd for 14 days by flow cytometry; type: functional, organism-based; conditions: time 14.0 day
[27] = Prodrug release assessed as IMDQ formation in presence of 10 mM GSH and measured after 1 to 8 hrs by HPLC analysis; type: ADME; conditions: time 1-8 hrs
BMDM [28] = experiment: Induction of macrophage repolarization in FR-beta expressing IL-4 differentiated M2 phenotype mouse BMDM cells assessed as reprogramming to M1 phenotype by measuring upregulation of MyD88 expression at 10 nM incubated for 24 hrs by western blot analysis; type: functional, cell-based
BMDM [29] = experiment: Induction of macrophage repolarization in FR-beta expressing IL-4 differentiated M2 phenotype mouse BMDM cells assessed as reprogramming to M1 phenotype by measuring upregulation of IL-6 level at 10 nM incubated for 24 hrs by ELISA; type: functional, cell-based
HUVEC [30] = experiment: Cytotoxicity against human HUVEC cells assessed as reduction in cell viability incubated for 24 hrs by CCK-8 assay; type: toxicity, cell-based
BMDM [31] = experiment: Induction of macrophage repolarization in FR-beta expressing IL-4 differentiated M2 phenotype mouse BMDM cells assessed as reprogramming to M1 phenotype by measuring downregulation of CD206 expression at 10 nM incubated for 24 hrs by western blot analysis; type: functional, cell-based
BMDM [32] = experiment: Induction of macrophage repolarization in FR-beta expressing IL-4 differentiated M2 phenotype mouse BMDM cells assessed as reprogramming to M1 phenotype by measuring upregulation of IL-6 mRNA expression at 10 nM incubated for 24 hrs by RT-qPCR analysis; type: functional, cell-based
4T1 [33] = experiment: Antitumor activity against mouse 4T1 cells xenografted in BALB/c mouse assessed as lifespan of animal's survival at 1 mg/kg, iv qd for 14 days; type: functional; conditions: time 14 day
BMDM [34] = experiment: Induction of macrophage repolarization in FR-beta expressing IL-4 differentiated M2 phenotype mouse BMDM cells assessed as reprogramming to M1 phenotype by measuring downregulation of IL-10 level at 10 nM incubated for 24 hrs by ELISA; type: functional, cell-based
Mus musculus [35] = experiment: In vivo transition from anti-inflammatory to pro-inflammatory phenotypes in BALB/c mouse xenografted with mouse 4T1 cells assessed as decrease in proportion of Ly6C+ and Ly6G+ cells within CD45+ population at 1 mg/kg, iv qd for 14 days by flow cytometry; type: functional, organism-based; conditions: time 14.0 day
[36] = Toxicity against BALB/c mouse xenografted with mouse 4T1 cells assessed as pathological changes in spleen at 1 mg/kg, iv qd for 14 days by Hematoxylin-Eosin staining based analysis; type: organism-based; conditions: in vivo, 336 h, time 14 day
[37] = Toxicity against BALB/c mouse xenografted with mouse 4T1 cells assessed as decrease in body weight at 0.333 mg/kg, iv qd for 14 days and measured every day; type: organism-based; conditions: in vivo, 336 h, time 14 day
Mus musculus [38] = experiment: In vivo repolarization of macrophages from M2 phenotype to M1 phenotype in BALB/c mouse xenografted with mouse 4T1 cells assessed as increase in M1 (F4/80+CD11b+CD86+) to M2 (F4/80+CD11b+CD206+) macrophage ratio in tumor at 0.333 mg/kg, iv qd for 14 days by flow cytometry; type: functional, organism-based; conditions: time 14.0 day
HUVEC [39] = experiment: Cytotoxicity against human HUVEC cells assessed as reduction in cell viability at >10 uM incubated for 24 hrs by CCK-8 assay; type: toxicity, cell-based
[40] = Toxicity against BALB/c mouse xenografted with mouse 4T1 cells assessed as heightened inflammatory response in lung at 0.333 mg/kg, iv qd for 14 days by Hematoxylin-Eosin staining based analysis; type: organism-based; conditions: in vivo, 336 h, time 14 day
4T1 [41] = experiment: Cytotoxicity against mouse 4T1 cells assessed as reduction in cell viability at >10 uM incubated for 24 hrs by CCK-8 assay; type: toxicity, cell-based; conditions: 4t1, 24 h
4T1 [42] = experiment: Antitumor activity against mouse 4T1 cells xenografted in BALB/c mouse assessed as lifespan of animal's survival at 0.333 mg/kg, iv qd for 14 days; type: functional; conditions: time 14 day
[43] = Cytotoxicity against mouse BMDM cells assessed as reduction in cell viability at >10 uM incubated for 24 hrs by CCK-8 assay; type: toxicity, cell-based
4T1 [44] = experiment: Antitumor activity against mouse 4T1 cells xenografted in BALB/c mouse assessed as inhibition of tumor growth at 0.333 mg/kg, iv qd for 14 days and measured every day by digital caliper analysis; type: functional, organism-based; conditions: time 14.0 day

SMILES: CCCCc1nc2c(N)nc3ccccc3c2n1Cc1ccc(CNC(=O)OCCSSC[C@H](NC(=O)CC[C@H](NC(=O)c2ccc(CCCCc3cc4c(=O)[nH]c(N)nc4[nH]3)cc2)C(=O)O)C(=O)O)cc1
- remaining at 12 h, 5 µM [1]: 95%
- Activity [2]: Non-toxic
- Activity [3]: Non-toxic
- Activity (4T1 [4]): Active; Most Pronounced Effect Compared To Fgt-1,2,3 Observed
- Activity (BMDM [5]): inactive
- Activity [6]: Non-toxic
- Activity (BMDM [7]): Active; More Pronounced Effect Compared To Fgt-2 Observed
- Activity (4T1 [8]): Non-toxic
- remaining at 360 h [9]: > 95%
- Drug metabolism [10]: metabolite_detected
- Activity (BMDM [11]): Active; More Pronounced Effect Compared To Fgt-2,3 Observed
- Activity [12]: Non-toxic
- Activity [13]: Non-toxic
- Activity (Mus musculus [14]): Active
- Activity [15]: Non-toxic
- Activity [16]: Non-toxic
- Activity (BMDM [17]): Active; More Pronounced Effect Compared To Fgt-2,3 Observed
- Activity (BMDM [18]): inactive
- Activity [19]: Non-toxic
- Activity (BMDM [20]): Active
- Activity (BMDM [21]): Active; More Pronounced Effect Compared To Fgt-2,3 Observed
- Activity (BMDM [22]): Active
- Activity (BMDM [23]): Active; More Pronounced Effect Compared To Fgt-2,3 Observed
- Activity (Mus musculus [24]): inactive
- Activity (BMDM [25]): Active; More Pronounced Effect Compared To Fgt-2,3 Observed
- Activity (Mus musculus [26]): Active
- Drug metabolism [27]: metabolite_detected
- Activity (BMDM [28]): Active
- Activity (BMDM [29]): Active; More Pronounced Effect Compared To Fgt-2 Observed
- Activity (HUVEC [30]): Non-toxic
- Activity (BMDM [31]): Active; More Pronounced Effect Compared To Fgt-2,3 Observed
- Activity (BMDM [32]): Active; More Pronounced Effect Compared To Fgt-2 Observed
- Survival (4T1 [33]): 35 days
- Activity (BMDM [34]): Active; More Pronounced Effect Compared To Fgt-2 Observed
- Activity (Mus musculus [35]): Active
- Activity [36]: Non-toxic

SMILES: CCCCc1nc2c(N)nc3ccccc3c2n1Cc1ccc(CN)cc1
- Activity (BMDM [5]): inactive
- Activity [6]: Toxic
- Activity (BMDM [7]): Active
- Activity [37]: Toxic
- Activity (Mus musculus [38]): inactive
- Activity (HUVEC [39]): Toxic
- Activity (BMDM [11]): Active
- Activity [40]: Toxic
- Activity (4T1 [41]): Toxic
- Activity (BMDM [17]): Active
- Activity (BMDM [18]): inactive
- Activity [19]: Toxic
- Activity (BMDM [20]): Active
- Survival (4T1 [42]): 27 days
- Activity (BMDM [21]): Active
- Activity (BMDM [22]): Active
- Activity (BMDM [23]): Active
- Activity (BMDM [25]): Active
- Activity (BMDM [28]): Active
- Activity (BMDM [29]): Active
- Activity [43]: Toxic
- Activity (4T1 [44]): Active; Diminished Antitumor Efficacy Compared To Fgt-1 To 4 Observed
- Activity (BMDM [31]): Active
- Activity (BMDM [32]): Active
- Activity (BMDM [34]): Active
